A word on the MIC: it is the lowest concentration found to suppress growth.

The test system of the first experiment is Escherichia coli ATCC 25922. Nature of the experiment: Minimum inhibitory concentration (MIC), CLSI broth micro-dilution, E. coli. The conditions noted are these: Escherichia coli, ATCC25922, 22 h, Table 6, cation adjusted Mueller Hinton Broth + 0.002% Tween-80, 35° C. The format is cell-based. The method, boiled down:
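Antibacterial potency is measured as MIC by the CLSI broth dilution method. Bacteria at OD600 0.0005 in Tween-80-supplemented cation-adjusted Mueller Hinton broth face ten twofold compound dilutions for 22 h at 35° C.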
Background: Dilution methods test growth across graded concentrations, often in twofold steps.
As to `Cc1nc(-c2ccc(C(C)(C)C)cc2)cc(N)c1C(=O)N[C@@H](CCN)C(=O)N(C)[C@@H]1C(=O)N[C@@H](C)C(=O)N[C@H](C(=O)NCC#N)Cc2ccc(OCCN)c(c2)-c2cc1ccc2O` (racemic) [Compound 557, rac-(8S,11S,14S)-3-(2-aminoethoxy)-N-(cyanomethyl)-18-hydroxy-11-methyl-14-[methyl-[rac-(2S)-4-amino-2-[[4-amino-6-(4-tert-butylphenyl)-2-methyl-pyridine-3-carbonyl]amino]butanoyl]amino]-10,13-dioxo-9,12-diazatricyclo[13.3.1.12,6]icosa-1(18),2(20),3,5,15(19),16-hexaene-8-carboxamide], the MIC is 0.25 µM.

The same experiment, now with this note: Escherichia coli, ATCC25922, 22 h, Table 7, cation adjusted Mueller Hinton Broth + 0.002% Tween-80, 35° C.
For the molecule `Cc1nc(-c2ccc(C(C)(C)C)cc2)nc(C)c1C(=O)N[C@@H](CCN)C(=O)N(C)[C@@H]1C(=O)N[C@@H](C)C(=O)N[C@H](C(=O)NCC#N)Cc2ccc(O)c(c2)-c2cc1ccc2OC(C)CN` (mixture of isomers) [Compound 607, rac-(8S,11S,14S)-18-(2-amino-1-methyl-ethoxy)-N-(cyanomethyl)-3-hydroxy-11-methyl-14-[methyl-[rac-(2S)-4-amino-2-[[2-(4-tert-butylphenyl)-4,6-dimethyl-pyrimidine-5-carbonyl]amino]butanoyl]amino]-10,13-dioxo-9,12-diazatricyclo[13.3.1.12,6]icosa-1(18),2(20),3,5,15(19),16-hexaene-8-carboxamide], the MIC is 0.5 µM.

For the molecule `Cc1nc(-c2ccc(C(C)(C)C)cc2)nc(C)c1C(=O)N[C@@H](CNS(N)(=O)=O)C(=O)N(C)[C@@H]1C(=O)N[C@@H](C)C(=O)N[C@H](C(=O)NCC#N)Cc2ccc(OC[C@@H](O)CN)c(c2)-c2cc1ccc2OC[C@@H](O)CN` (racemic) [Compound 581, rac-(8S,11S,14S)-N-(cyanomethyl)-11-methyl-14-[methyl-[rac-(2S)-2-[[2-(4-tert-butylphenyl)-4,6-dimethyl-pyrimidine-5-carbonyl]amino]-3-(sulfamoylamino)propanoyl]amino]-10,13-dioxo-3,18-bis[rac-(2S)-3-amino-2-hydroxy-propoxy]-9,12-diazatricyclo[13.3.1.12,6]icosa-1(18),2(20),3,5,15(19),16-hexaene-8-carboxamide], the MIC was 0.25 µM.

On to `Cc1nc(-c2ccc(C(C)(C)C)cc2)nc(C)c1C(=O)N[C@@H](CCN)C(=O)N(C)[C@@H]1C(=O)N[C@@H](C)C(=O)N[C@H](C(=O)NCC#N)Cc2ccc(OCCN)c(c2)-c2cc1cc(NCCN)c2O` (racemic) [Compound 589, rac-(8S,11S,14S)-3-(2-aminoethoxy)-17-(2-aminoethylamino)-N-(cyanomethyl)-18-hydroxy-11-methyl-14-[methyl-[rac-(2S)-4-amino-2-[[2-(4-tert-butylphenyl)-4,6-dimethyl-pyrimidine-5-carbonyl]amino]butanoyl]amino]-10,13-dioxo-9,12-diazatricyclo[13.3.1.12,6]icosa-1(18),2(20),3,5,15(19),16-hexaene-8-carboxamide], for which the MIC turned out to be 1 µM.

Still in this experiment, the particulars now being: Escherichia coli, ATCC25922, Table 6, cation adjusted Mueller Hinton Broth + 0.002% Tween-80, 35° C., 22 hours.
`Cc1nc(-c2ccc(OC3CCCCC3)cc2)nc(C)c1C(=O)N[C@@H](CCNC(=O)CO)C(=O)N(C)[C@@H]1C(=O)N[C@@H](C)C(=O)N[C@H](C(=O)NCC#N)Cc2ccc(OCCN)c(c2)-c2cc1ccc2OCCN` [Compound 511, (8S,11S,14S)-3,18-bis(2-aminoethoxy)-N-(cyanomethyl)-14-[[(2S)-2-[[2-[4-(cyclohexoxy)phenyl]-4,6-dimethyl-pyrimidine-5-carbonyl]amino]-4-[(2-hydroxyacetyl)amino]butanoyl]-methyl-amino]-11-methyl-10,13-dioxo-9,12-diazatricyclo[13.3.1.12,6]icosa-1(18),2(20),3,5,15(19),16-hexaene-8-carboxamide]: the MIC stood at 2 µM.

`Cc1nc(-c2ccc(C(C)(C)C)cc2)nc(C)c1C(=O)N[C@@H](COC(C)(C)C)C(=O)N[C@@H](CCN)C(=O)N(C)[C@@H]1C(=O)N[C@@H](C)C(=O)N[C@H](C(=O)NCC#N)Cc2ccc(OCCN)c(c2)-c2cc1ccc2OCCN` (racemic) [Compound 466, rac-(8S,11S,14S)-3,18-bis(2-aminoethoxy)-N-(cyanomethyl)-11-methyl-14-[methyl-[rac-(2S)-4-amino-2-[[rac-(2S)-3-tert-butoxy-2-[[2-(4-tert-butylphenyl)-4,6-dimethyl-pyrimidine-5-carbonyl]amino]propanoyl]amino]butanoyl]amino]-10,13-dioxo-9,12-diazatricyclo[13.3.1.12,6]icosa-1(18),2(20),3,5,15(19),16-hexaene-8-carboxamide]: the minimal inhibitory concentration (MIC) came to 1.5 µM.

For the molecule `CC[C@H](NC(=O)c1c(C)nc(-c2ccc(OC3CCCCC3)cc2)nc1C)C(=O)N[C@@H](CCN)C(=O)N(C)[C@@H]1C(=O)N[C@@H](C)C(=O)N[C@H](C(=O)NCC#N)Cc2ccc(OCCN)c(c2)-c2cc1ccc2OCCN` [Compound 510, (8S,11S,14S)-14-[[(2S)-4-amino-2-[[(2S)-2-[[2-[4-(cyclohexoxy)phenyl]-4,6-dimethyl-pyrimidine-5-carbonyl]amino]butanoyl]amino]butanoyl]-methyl-amino]-3,18-bis(2-aminoethoxy)-N-(cyanomethyl)-11-methyl-10,13-dioxo-9,12-diazatricyclo[13.3.1.12,6]icosa-1(18),2(20),3,5,15(19),16-hexaene-8-carboxamide], the minimal inhibitory concentration (MIC) was 1.5 µM.

With `C=Cc1ccc(C#Cc2nc(C)c(C(=O)N[C@@H](CCN)C(=O)N(C)[C@@H]3C(=O)N[C@@H](C)C(=O)N[C@H](C(=O)NCC#N)Cc4ccc(OCCN)c(c4)-c4cc3ccc4OCCN)c(C)n2)cc1` (racemic) [Compound 310, rac-(8S,11S,14S)-3,18-bis(2-aminoethoxy)-N-(cyanomethyl)-11-methyl-14-[methyl-[rac-(2S)-4-amino-2-[[4,6-dimethyl-2-[2-(4-vinylphenyl)ethynyl]pyrimidine-5-carbonyl]amino]butanoyl]amino]-10,13-dioxo-9,12-diazatricyclo[13.3.1.12,6]icosa-1(18),2(20),3,5,15(19),16-hexaene-8-carboxamide], the MIC came to 0.53 µM.

In the case of `Cc1nc(-c2ccc(CC(C)(C)C)cc2)ncc1C(=O)N[C@@H](CCN)C(=O)N(C)[C@@H]1C(=O)N[C@@H](C)C(=O)N[C@H](C(=O)NCC#N)Cc2ccc(OCCN)c(c2)-c2cc1ccc2OCCN` (racemic) [Compound 226, rac-(8S,11S,14S)-3,18-bis(2-aminoethoxy)-N-(cyanomethyl)-11-methyl-14-[methyl-[rac-(2S)-4-amino-2-[[2-[4-(2,2-dimethylpropyl)phenyl]-4-methyl-pyrimidine-5-carbonyl]amino]butanoyl]amino]-10,13-dioxo-9,12-diazatricyclo[13.3.1.12,6]icosa-1(18),2(20),3,5,15(19),16-hexaene-8-carboxamide], the MIC came to 0.099 µM.

As for `Cc1nc(-c2ccc(C(C)(C)C)cc2)ncc1C(=O)N[C@@H](CCN)C(=O)N(C)[C@@H]1C(=O)N[C@@H](C)C(=O)N[C@H](C(=O)NCC#N)Cc2ccc(OCCCN)c(c2)-c2cc1ccc2OCCCN` (racemic) [Compound 433, rac-(8S,11S,14S)-3,18-bis(3-aminopropoxy)-N-(cyanomethyl)-11-methyl-14-[methyl-[rac-(2S)-4-amino-2-[[2-(4-tert-butylphenyl)-4-methyl-pyrimidine-5-carbonyl]amino]butanoyl]amino]-10,13-dioxo-9,12-diazatricyclo[13.3.1.12,6]icosa-1(18),2(20),3,5,15(19),16-hexaene-8-carboxamide], the MIC was 0.096 µM.

As to `CCC1(Oc2ccc(-c3nc(C)c(C(=O)N[C@@H](CCN)C(=O)N(C)[C@@H]4C(=O)N[C@@H](C)C(=O)N[C@H](C(=O)NCC#N)Cc5ccc(OCCN)c(c5)-c5cc4ccc5OCCN)c(C)n3)cc2)CC1` (racemic) [Compound 345, rac-(8S,11S,14S)-3,18-bis(2-aminoethoxy)-N-(cyanomethyl)-11-methyl-14-[methyl-[rac-(2S)-4-amino-2-[[2-[4-(1-ethylcyclopropoxy)phenyl]-4,6-dimethyl-pyrimidine-5-carbonyl]amino]butanoyl]amino]-10,13-dioxo-9,12-diazatricyclo[13.3.1.12,6]icosa-1(18),2(20),3,5,15(19),16-hexaene-8-carboxamide], the MIC was found to be 0.25 µM.

With `Cc1nc(-c2ccc(C(C)(C)C)cc2F)nc(C)c1C(=O)N[C@@H](CCN)C(=O)N(C)[C@@H]1C(=O)N[C@@H](C)C(=O)N[C@H](C(=O)NCC#N)Cc2ccc(OCCN)c(c2)-c2cc1ccc2OCCN` (racemic) [Compound 299, rac-(8S,11S,14S)-3,18-bis(2-aminoethoxy)-N-(cyanomethyl)-11-methyl-14-[methyl-[rac-(2S)-4-amino-2-[[2-(4-tert-butyl-2-fluoro-phenyl)-4,6-dimethyl-pyrimidine-5-carbonyl]amino]butanoyl]amino]-10,13-dioxo-9,12-diazatricyclo[13.3.1.12,6]icosa-1(18),2(20),3,5,15(19),16-hexaene-8-carboxamide], the MIC is 0.38 µM.

Still in this experiment, the particulars now being: Escherichia coli, ATCC25922, Table 7, cation adjusted Mueller Hinton Broth + 0.002% Tween-80, 35° C., 22 hours.
For the molecule `Cc1nc(-c2ccc(C(C)(C)C)cc2)nc(C)c1C(=O)N[C@@H](CCN)C(=O)N(C)[C@@H]1C(=O)N[C@@H](C)C(=O)N[C@H](C(=O)NCC#N)Cc2ccc(OCCN)c(c2)-c2cc1cc(NC(N)=O)c2OCCN` (racemic) [Compound 622, rac-(8S,11S,14S)-3,18-bis(2-aminoethoxy)-N-(cyanomethyl)-11-methyl-14-[methyl-[rac-(2S)-4-amino-2-[[2-(4-tert-butylphenyl)-4,6-dimethyl-pyrimidine-5-carbonyl]amino]butanoyl]amino]-10,13-dioxo-17-ureido-9,12-diazatricyclo[13.3.1.12,6]icosa-1(18),2(20),3,5,15(19),16-hexaene-8-carboxamide], the minimal inhibitory concentration (MIC) turned out to be 0.5 µM.
